Laboratory results taken from patent publication US20160030510A1, “METHODS OF TREATING ALZHEIMER'S DISEASE AND OTHER TAUOPATHIES WITH INHIBITORS OF MICROTUBULE AFFINITY REGULATING KINASE” (The Board of Trustees of the Leland Stanford Junior …, priority 2012, published 2016).
Where a SMILES comes first, the peptide text is derived from it.

Legend:
[1] = tested on: MARK4-mediated tau phosphorylation; experiment: Tau phosphorylation in brain of mouse PS19 transgenic tauopathy model (P301S mutant human tau); format: in vivo; settings: PS19 mice, IP 40 mg/kg/day for 5 days, FIG. 10
Experimental: Three PS19 transgenic mice (ID number: 9, 10, 11) were subjected to daily IP injection with MKI-TAT peptide (dissolved in 100% DMSO, 40 mg/kg/day) for 5 days. At the end of 5-day injection, the animals were anesthetized with 4% isoflurine and decapitated. The brain tissues were collected immediately, flash-frozen in liquid nitrogen and stored at −80° C. For analysis of effect of MKI-TAT on tau phosphorylation, brain tissues were homogenized in lysis buffer, separated on SDS-PAGE, and probed with the indicated antibodies.
Three PS19 transgenic mice (ID number: 9, 10, 11) were subjected to daily intraperitoneal injection with MKI-TAT peptide (dissolved in 100% DMSO, 40 mg/kg/day) for 5 days. At the end of the 5-day injection period, the animals were anesthetized with 4% isoflurine and decapitated. The brain tissues were collected immediately, flash-frozen in liquid nitrogen, and stored at −80° C. For analysis of the effects of MKI-TAT on tau phosphorylation, brain tissues were homogenized in lysis buffer, separated on SDS-PAGE, and probed with antibodies against pS262-tau, PHF-1, tau, and actin.

[2] = tested on: 5×FAD mouse; experiment: Activity Chamber assay in 5×FAD Alzheimer's disease mouse model; format: in vivo; settings: 5×FAD mice, daily IP for 5 days, FIGS. 11A-11H
From the text: The 5×FAD mouse, a well-accepted transgenic model of Alzheimer's disease, was used to test the therapeutic efficacy of MKI-TAT in vivo. The 5×FAD model mouse overexpresses APP with the K670N/M671L (Swedish mutation), I716V (Florida mutation), and V717I (London mutation), and PS1 with the M146L and L286V mutations. […] These defects were rescued by the daily delivery of MKI-TAT through IP for 5 days. At the end of the 5 day treatment, the wild type animals treated with vehicle, and 5×FAD mice treated with vehicle or MKI-TAT were subjected to the Activity Chamber assay. Total ambulatory count (FIG. 11A), total stereotypic count (FIG. 11B), total vertical count (FIG. 11C), total session time (FIG. 11D), total ambulatory time (FIG. 11E), total stereotypic time (FIG. 11F), total vertical time (FIG. 11G), and total zone entry (FIG. 11H) were evaluated.
Activity Chamber assays were performed to evaluate the effects of MKI-TAT in rescuing motor behavioral defects in an Alzheimer's disease mouse model. The 5×FAD mouse, a well-accepted transgenic model of Alzheimer's disease, was used to test the therapeutic efficacy of MKI-TAT in vivo. The 5×FAD model mouse overexpresses APP with the K670N/M671L (Swedish mutation), I716V (Florida mutation), and V717I (London mutation), and PS1 with the M146L and L286V mutations. […]

[3] = biological target: T1, Human MARK4 (Homo sapiens, UniProt Q96L34); experiment: In vitro kinase assay of MARK4 phosphorylating tau (Western blot); format: biochemical; settings: human MARK4 and tau affinity-purified from HEK293 cells, FIG. 7
T1 construct: made in house; host or cells: HEK293 cells
T1 sequence (Q96L34 1-752): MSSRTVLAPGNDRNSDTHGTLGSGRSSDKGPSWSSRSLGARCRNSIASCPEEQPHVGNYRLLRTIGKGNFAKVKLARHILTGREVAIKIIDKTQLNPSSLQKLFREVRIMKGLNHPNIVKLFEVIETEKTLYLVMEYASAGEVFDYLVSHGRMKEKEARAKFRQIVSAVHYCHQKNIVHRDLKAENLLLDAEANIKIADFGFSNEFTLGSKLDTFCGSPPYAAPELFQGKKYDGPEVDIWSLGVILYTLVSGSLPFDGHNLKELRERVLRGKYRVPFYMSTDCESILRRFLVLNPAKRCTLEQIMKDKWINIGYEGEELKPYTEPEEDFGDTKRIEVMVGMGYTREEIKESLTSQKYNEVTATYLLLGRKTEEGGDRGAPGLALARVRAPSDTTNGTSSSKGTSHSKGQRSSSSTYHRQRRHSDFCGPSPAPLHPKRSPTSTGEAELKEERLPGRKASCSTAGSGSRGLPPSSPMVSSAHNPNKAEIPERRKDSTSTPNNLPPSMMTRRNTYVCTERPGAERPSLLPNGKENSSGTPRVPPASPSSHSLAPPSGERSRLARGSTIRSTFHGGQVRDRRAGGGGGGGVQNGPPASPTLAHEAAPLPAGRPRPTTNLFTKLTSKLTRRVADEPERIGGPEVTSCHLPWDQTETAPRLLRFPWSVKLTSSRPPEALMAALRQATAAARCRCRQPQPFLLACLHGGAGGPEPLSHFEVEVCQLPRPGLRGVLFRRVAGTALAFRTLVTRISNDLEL
From the text: Both human MARK4 and tau proteins were expressed in HEK293 cells and affinity-purified by immunoprecipitation. After in vitro kinase reaction in the presence or absence of the peptides, the reaction mixtures were separated on SDS-PAGE to separate the proteins, and the levels of total tau and phospho-tau generated by MARK4 were detected by Western blot analysis. The TAT peptide was used as a negative control. Note the inhibition of MARK4-mediated tau phosphorylation by both TAT-MKI and MKI-TAT.
We next tested the ability of the TAT-MKI and MKI-TAT fusions to inhibit the activity of MARK4 kinase in phosphorylating the tau protein (FIG. 7). Human MARK4 and tau proteins were expressed in HEK293 cells and affinity-purified by immunoprecipitation. In vitro kinase reactions were performed in the presence or absence of the TAT-MKI and MKI-TAT fusion peptides and the levels of total tau and phospho-tau generated by MARK4 were detected by Western blot analysis. The TAT peptide was used as a negative control. Both the TAT-MKI and MKI-TAT fusion peptides inhibited MARK4-mediated tau phosphorylation in vitro.

CC(=O)NCC(=O)N[C@@H](Cc1ccccc1)C(=O)N1CCC[C@H]1C(=O)N[C@@H](CC(C)C)C(=O)N[C@@H](CCCCN)C(=O)N[C@@H](CCCNC(=N)N)C(=O)N[C@@H](Cc1c[nH]cn1)C(=O)N[C@@H](CC(=O)O)C(=O)NCC(=O)N[C@H](C(=O)N[C@@H](CC(=O)O)C(=O)N[C@@H](CC(=O)O)C(=O)N[C@@H](CC(C)C)C(=O)N[C@@H](CO)C(=O)N[C@@H](CCCCN)C(=O)N[C@H](C(=O)NCC(=O)NCC(=O)N[C@@H](Cc1ccc(O)cc1)C(=O)NCC(=O)N[C@@H](CCCNC(=N)N)C(=O)N[C@@H](CCCCN)C(=O)N[C@@H](CCCCN)C(=O)N[C@@H](CCCNC(=N)N)C(=O)N[C@@H](CCCNC(=N)N)C(=O)N[C@@H](CCC(N)=O)C(=O)N[C@@H](CCCNC(=N)N)C(=O)N[C@@H](CCCNC(=N)N)C(=O)N[C@@H](CCCNC(=N)N)C(N)=O)C(C)C)C(C)C [MKI-TAT] (Ac-GFPLKRHDGVDDLSKVGGYGRKKRRQRRR-NH2)
Phospho-tau recognized by the PHF-1 antibody in brain [1]: reduced
level of MARK4-mediated tau phosphorylation recognized by the pS262-tau antibody in brain [1]: significantly reduced
total tau level in brain [1]: largely unchanged
motor behavioral defects (time in zones, average velocity, rearing time, session time, zone entry) [2]: rescued
MARK4-mediated tau phosphorylation in vitro [3]: inhibited
